In patent US5134142A, “Pyrazole derivatives, and pharmaceutical composition comprising the same” (Fujisawa Pharmaceutical Co., Ltd., priority 1989, dated 1992):
Blank lines part the entries; values can stand above or below the molecule they belong to.

How the values were obtained:
[1] = test system: inflammatory hyperalgesia induced by brewer's yeast in rats; test: Inflammatory hyperalgesia induced by brewer's yeast in rats (analgesic activity); format: in vivo, male Sprague Dawley rats; settings: oral, pain threshold 3 hours after yeast injection
Protocol: Inflammatory hyperalgesia induced by brewer's yeast in rats : (i) Test Method : Ten male Sprague Dawley rats were used per group. 0.1 ml of 5% brewer's yeast suspended in 0.5% methylcellulose was injected into the right hind paw. The pain threshold was determined 3 hours after yeast injection, by applying pressure to the foot and reading the pressure at which the rat withdrew the foot. The drugs were given orally 2 hours after yeast injection. The pain threshold in the treated animals was compared with that in the control animals.

[2] = test system: collagen induced arthritis in mice; test: Effect on collagen induced arthritis in mice (anti-rheumatic activity); format: in vivo, male DBA/1 mice; settings: 10 mg/kg, orally once a day for 3 weeks from 10 day after challenge
Protocol: Effect on collagen induced arthritis in mice : (i) Test Method : Eight male DBA/1 mice were used per group. Type II bovine collagen was solublized in 0.1M acetic acid and emulsified in complete Freund's adjuvant (CFA . Mice were primed with 0.2 mg of Type II collagen in CFA intradermally at the base of the tail. Mice were challenged after 21 day with the same procedure. From 10 day after challenge, drug was administered orally once a day for 3 weeks and mice were inspected weekly for visual signs of arthritis. An arthritis index was used to grade limb 0-3, representing joint swelling and erythema (Grade 1), visible joint disorder (Grade 2 and detectable joint ankylosis (Grade 3).

[3] = test system: adjuvant arthritis in rats; test: Effect on adjuvant arthritis in rats (antiinflammatory activity); format: in vivo, female Sprague-Dawley rats; settings: Rattus norvegicus, po, 552 h, orally once a day for 23 days, read-out: Inhibition of secondary lesion (uninjected paw)
[4] = test system: Delayed Type Hypersensitivity (DTH) response to bovine type II collagen; test: Effect on Delayed Type Hypersensitivity (DTH) response to bovine type II collagen; format: in vivo, male DBA/1 mice; settings: oral, 24 hours after challenge, mice
[5] = test system: platelet aggregation induced by collagen; test: Effect on platelet aggregation induced by collagen (antithrombotic activity); format: cell-based; settings: human platelet rich plasma, collagen 0.5 μg/ml, 37° C
Protocol: Effect on platelet aggregation induced by collagen :
Platelet rich plasma (PRP) which contains 3×10^8 platelets/ml was prepared from human blood. To the 245 μl of PRP, 5 μl of drug solution* was added, and then stirred for 2 min at 37° C. To the solution 5 μl of collagen (0.5 μg/ml) was added as an aggregation inducer. Aggregation was measured by using an aggregometer (NKK HEMA-TRACER 1). Activities of inhibitors (test compounds) were expressed as IC50 values i.e. doses required to inhibit the platelet aggregation responses by 50%.
Drug solution* - - - Test compounds were dissolved in dimethylsulfoxide.

SMILES: CS(=O)(=O)c1ccc(-c2cc(C(F)(F)F)nn2-c2ccc(F)cc2)cc1 [11-3), 1-(4-Fluorophenyl)-5-[4-(methylsulfonyl)phenyl]-3-(trifluoromethyl)pyrazole]
Relative potency (Control = 1.0) ([1]; 32 mg/kg): 1.35 | Inhibition of arthritis index [2]: 91.7% | inhibition in vivo at 10 mg/kg [3]: 100%

SMILES: CSc1ccc(-c2cc(C#N)nn2-c2ccc(F)cc2)cc1 [15-2), 1-(4-Fluorophenyl)-5-[4-(methylthio)phenyl]pyrazole-3-carbonitrile]
per cent inhibition of DTH response compared with vehicle control ([4]; 0.32 mg/kg): 55.4% | per cent inhibition of DTH response compared with vehicle control ([4]; 1.0 mg/kg): 70.9% | per cent inhibition of DTH response compared with vehicle control ([4]; 3.2 mg/kg): 69.6%

SMILES: CS(=O)(=O)c1ccc(-c2cc(C#N)nn2-c2ccc(F)cc2F)cc1 [15-6), 1-(2,4-Difluorophenyl)-5-[4-(methylsulfonyl)phenyl]pyrazole-3-carbonitrile]
Inhibition of arthritis index [2]: 98.9% | inhibition in vivo at 3.2 mg/kg [3]: 94.3%

SMILES: CS(=O)(=O)c1ccc(-c2ccnn2-c2ccc(F)cc2)cc1 [17-1), 1-(4-Fluorophenyl)-5-[4-(methylsulfonyl)phenyl]pyrazole]
inhibition in vivo at 3.2 mg/kg [3]: 80.6%

SMILES: C[S+]([O-])c1ccc(-c2cc(C#N)nn2-c2ccc(F)cc2F)cc1 (centres unmarked) [33-2), 1-(2,4-Difluorophenyl)-5-[4-(methylsulfinyl)phenyl]pyrazole-3-carbonitrile]
Inhibition of arthritis index [2]: 92.4% | inhibition in vivo at 3.2 mg/kg [3]: 87.1%

SMILES: CCNc1ccc(-n2nc(C#N)cc2-c2ccc(S(C)(=O)=O)cc2)cc1 [37-2), 1-[4-(Ethylamino)phenyl]-5-[4-(methylsulfonyl)phenyl]pyrazole-3-carbonitrile]
inhibition in vivo at 3.2 mg/kg [3]: 81.7%

SMILES: CNc1ccc(-n2nc(C(F)(F)F)cc2-c2ccc(S(C)(=O)=O)cc2)cc1.Cl [45-8), 1-[4-(Methylamino)phenyl]-5-[4-(methylsulfonyl)-phenyl]-3-(trifluoromethyl)pyrazole hydrochloride]
Inhibition of arthritis index [2]: 83.5% | inhibition in vivo at 3.2 mg/kg [3]: 80.8%

IC50 [5]: 5.3 µM
SMILES: CS(=O)(=O)c1ccc(-c2cc(C#N)nn2-c2ccc(F)cc2)cc1 [Example 6, 1-(4-fluorophenyl)-5-[4-(methylsulfonyl)phenyl]pyrazole-3-carbonitrile]
Relative potency (Control = 1.0) ([1]; 32 mg/kg): 1.34 | Inhibition of arthritis index [2]: 78.6% | per cent inhibition of DTH response compared with vehicle control ([4]; 0.32 mg/kg): 53.4% | per cent inhibition of DTH response compared with vehicle control ([4]; 1.0 mg/kg): 61.5% | per cent inhibition of DTH response compared with vehicle control ([4]; 3.2 mg/kg): 74.3% | inhibition in vivo at 10 mg/kg [3]: 95.6%

SMILES: C[S+]([O-])c1ccc(-c2cc(C#N)nn2-c2ccc(F)cc2)cc1 (centres unmarked) [Example 24, 1-(4-fluorophenyl)-5-[4-(methylsulfinyl)phenyl]pyrazole-3-carbonitrile]
Relative potency (Control = 1.0) ([1]; 10 mg/kg): 1.44 | Inhibition of arthritis index [2]: 90.5% | per cent inhibition of DTH response compared with vehicle control ([4]; 0.32 mg/kg): 45.9% | per cent inhibition of DTH response compared with vehicle control ([4]; 1.0 mg/kg): 66.9% | per cent inhibition of DTH response compared with vehicle control ([4]; 3.2 mg/kg): 75.7% | inhibition in vivo at 3.2 mg/kg [3]: 80.6%

SMILES: CS(=O)(=O)Nc1ccc(-n2nc(C#N)cc2-c2ccc(S(C)(=O)=O)cc2)cc1 [Example 36]
inhibition in vivo at 3.2 mg/kg [3]: 84.2%

SMILES: CC(C)Cc1ccc(C(C)C(=O)O)cc1 (centres unmarked) [Ibuprofen, reference compound]
inhibition in vivo at 10 mg/kg [3]: 24.7%
